One test addresses NaV 1.7 channel (Homo sapiens, UniProt Q15858). In words: NaV inhibition, optical membrane potential assay (analogous mode). To be noted: activity against NaV 1.7 channel. The class given is cell-based. On the procedure:
(§1) Compounds of the invention are useful as antagonists of voltage-gated sodium ion channels. Antagonist properties of test compounds were assessed as follows. Cells expressing the NaV of interest were placed into microtiter plates. After an incubation period, the cells were stained with fluorescent dyes sensitive to the transmembrane potential. The test compounds were added to the microtiter plate. The cells were stimulated with either a chemical or electrical means to evoke a NaV dependent membrane potential change from unblocked channels, which was detected and measured with trans-membrane potential-sensitive dyes. Antagonists were detected as a decreased membrane potential response to the stimulus. The optical membrane potential assay utilized voltage-sensitive FRET sensors described by Gonzalez and Tsien (See Gonzalez, J. E. and R. Y. Tsien (1995) “Voltage sensing by fluorescence resonance energy transfer in single cells” Biophys J 69(4): 1272-80, and Gonzalez, J. E. and R. Y. Tsien (1997) “Improved indicators of cell membrane potential that use fluorescence resonance energy transfer” Chem Biol 4(4): 269-77) in combination with instrumentation for measuring fluorescence changes such as the Voltage/Ion Probe Reader (VIPR®) (See Gonzalez, J. E., K. Oades, et al. (1999) “Cell-based assays and instrumentation for screening ion-channel targets” Drug Discov Today 4(9): 431-439).
(§2) C) VIPR® Optical Membrane Potential Assay Method with Electrical Stimulation
(§3) The following is an example of how NaV1.3 inhibition activity is measured using the optical membrane potential method#2. Other subtypes are performed in an analogous mode in a cell line expressing the NaV of interest.
(§4) The electrical stimulation instrument and methods of use are described in ION Channel Assay Methods PCT/US01/21652, herein incorporated by reference. The instrument comprises a microtiter plate handler, an optical system for exciting the coumarin dye while simultaneously recording the coumarin and oxonol emissions, a waveform generator, a current- or voltage-controlled amplifier, and a device for inserting electrodes in well. Under integrated computer control, this instrument passes user-programmed electrical stimulus protocols to cells within the wells of the microtiter plate.
(§5) Assay Protocol • 1. Insert or use electrodes into each well to be assayed. • 2. Use the current-controlled amplifier to deliver stimulation wave pulses for 3 s. Two seconds of pre-stimulus recording are performed to obtain the un-stimulated intensities. Five seconds of post-stimulation recording are performed to examine the relaxation to the resting state.
(§6) Data are analyzed and reported as normalized ratios of background-subtracted emission intensities measured in the 460 nm and 580 nm channels. Background intensities are then subtracted from each assay channel. Background intensities are obtained by measuring the emission intensities during the same time periods from identically treated assay wells in which there are no cells. The response as a function of time is then reported as the ratios obtained using the following formula: […]
(§7) The data is further reduced by calculating the initial (Ri) and final (Rf) ratios. These are the average ratio values during part or all of the pre-stimulation period, and during sample points during the stimulation period. The response to the stimulus ρ=Rf/Ri is then calculated.
(§8) Control responses are obtained by performing assays in the presence of a compound with the desired properties (positive control) and in the absence of pharmacological agents (negative control). Responses to the negative (N) and positive (P) controls are calculated as above. The activity A of the assay well relative to positive and negative controls is defined as: […]

The target in test [1] is T1, NaV1.8 (Homo sapiens, UniProt Q9Y5Y9). Described as above. The class given is cell-based. The following applies: activity against NaV 1.8 channel. As for the experimental part:
as §1, §2, §3, §4, §5, §6, §7, §8
Target sequence in this assay (Q9Y5Y9 whole entry): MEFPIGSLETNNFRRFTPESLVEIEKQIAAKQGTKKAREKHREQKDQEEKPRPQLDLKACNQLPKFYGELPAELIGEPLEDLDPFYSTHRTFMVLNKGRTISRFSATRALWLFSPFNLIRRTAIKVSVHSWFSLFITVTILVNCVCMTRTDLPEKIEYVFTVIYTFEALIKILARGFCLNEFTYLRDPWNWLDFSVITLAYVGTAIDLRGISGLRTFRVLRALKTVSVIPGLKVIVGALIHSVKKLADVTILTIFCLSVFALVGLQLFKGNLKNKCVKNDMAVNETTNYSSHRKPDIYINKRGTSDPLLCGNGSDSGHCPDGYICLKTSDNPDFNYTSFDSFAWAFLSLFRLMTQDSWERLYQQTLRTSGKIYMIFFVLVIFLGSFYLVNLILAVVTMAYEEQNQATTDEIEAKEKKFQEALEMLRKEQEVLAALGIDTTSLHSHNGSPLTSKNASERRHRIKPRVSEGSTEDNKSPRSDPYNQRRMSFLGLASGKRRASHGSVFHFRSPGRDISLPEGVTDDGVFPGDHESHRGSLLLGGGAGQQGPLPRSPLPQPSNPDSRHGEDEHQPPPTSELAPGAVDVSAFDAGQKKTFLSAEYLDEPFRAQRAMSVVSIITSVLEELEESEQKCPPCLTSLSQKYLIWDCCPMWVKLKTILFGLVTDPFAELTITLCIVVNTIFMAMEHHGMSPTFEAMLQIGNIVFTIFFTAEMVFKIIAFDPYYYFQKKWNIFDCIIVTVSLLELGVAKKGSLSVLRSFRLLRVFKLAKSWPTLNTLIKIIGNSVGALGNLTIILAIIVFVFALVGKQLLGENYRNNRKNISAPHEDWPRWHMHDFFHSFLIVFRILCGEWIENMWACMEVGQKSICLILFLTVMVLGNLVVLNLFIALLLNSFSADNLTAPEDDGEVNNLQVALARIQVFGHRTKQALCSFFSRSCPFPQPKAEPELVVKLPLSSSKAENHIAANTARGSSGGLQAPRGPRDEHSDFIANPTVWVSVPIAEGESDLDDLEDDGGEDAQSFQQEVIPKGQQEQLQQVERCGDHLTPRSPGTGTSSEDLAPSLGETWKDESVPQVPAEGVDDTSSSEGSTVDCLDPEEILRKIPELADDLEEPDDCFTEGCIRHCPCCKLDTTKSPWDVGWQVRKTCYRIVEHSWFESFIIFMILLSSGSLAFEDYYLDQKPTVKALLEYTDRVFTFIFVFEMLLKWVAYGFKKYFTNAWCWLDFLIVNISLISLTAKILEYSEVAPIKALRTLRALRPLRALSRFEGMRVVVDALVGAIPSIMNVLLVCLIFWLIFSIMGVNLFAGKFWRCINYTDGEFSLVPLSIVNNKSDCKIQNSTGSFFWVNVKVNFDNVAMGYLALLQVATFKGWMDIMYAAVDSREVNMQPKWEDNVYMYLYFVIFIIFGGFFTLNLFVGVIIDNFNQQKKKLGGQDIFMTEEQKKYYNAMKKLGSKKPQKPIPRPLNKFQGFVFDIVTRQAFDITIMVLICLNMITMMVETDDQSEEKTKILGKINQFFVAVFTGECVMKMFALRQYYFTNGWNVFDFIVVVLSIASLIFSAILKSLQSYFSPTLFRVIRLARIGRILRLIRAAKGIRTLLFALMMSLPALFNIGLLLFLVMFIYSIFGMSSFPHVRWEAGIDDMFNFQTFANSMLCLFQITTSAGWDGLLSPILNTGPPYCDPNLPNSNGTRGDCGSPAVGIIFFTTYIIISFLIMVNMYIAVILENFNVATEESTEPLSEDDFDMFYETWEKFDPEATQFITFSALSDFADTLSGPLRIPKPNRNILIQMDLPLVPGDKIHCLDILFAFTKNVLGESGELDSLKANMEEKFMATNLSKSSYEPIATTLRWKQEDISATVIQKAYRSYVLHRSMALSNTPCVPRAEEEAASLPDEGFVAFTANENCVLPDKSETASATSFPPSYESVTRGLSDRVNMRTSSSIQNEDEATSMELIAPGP

Test [2] concerns the target T2, NaV1.3 (Homo sapiens, UniProt Q9NY46). In words: NaV inhibition, VIPR optical membrane potential assay with electrical stimulation. The class given is cell-based. The arrangement: expressed in transfected cells; host or cells: HEK293. The following applies: activity against NaV 1.3 channel. On the procedure:
as §1, §2, §3
HEK293 cells stably expressing NaV 1.3 are plated into 96-well microtiter plates. After an appropriate incubation period, the cells are stained with the voltage sensitive dyes CC2-DMPE/DiSBAC2(3) as follows.
10 mM CC2-DMPE is vortexed with an equivalent volume of 10% pluronic, followed by vortexing in required amount of HBSS containing 10 mM HEPES. Each cell plate will require 5 mL of 2×CC2-DMPE. 50 μL of 2×CC2-DMPE is to wells containing washed cells, resulting in a 10 μM final staining concentration. The cells are stained for 30 minutes in the dark at RT.
The 2×DiSBAC2(3) solution can be used to solvate compound plates. Note that compound plates are made at 2× drug concentration. Wash stained plate again, leaving residual volume of 50 μL. Add 50 uL/well of the 2×DiSBAC2(3) w/ABSC1. Stain for 30 minutes in the dark at RT.
as §4, §5, §6

The target of another test is NaV1.6 (Homo sapiens, UniProt Q9UQD0). To be noted: read-out: TTX IC50; cited from earlier work.
The target in test [3] is T1, NaV1.8. To be noted: read-out: TTX IC50; cited from earlier work.
Target sequence in this assay (Q9Y5Y9 whole entry, looked up): as the sequence (Q9Y5Y9 whole entry) above
Test [4] deals with T2, NaV1.3. The following applies: read-out: TTX IC50; cited from earlier work.
The target of the next test is NaV1.9 (Homo sapiens, UniProt Q9UI33). The following applies: read-out: TTX IC50; cited from earlier work.

Where two headings read alike, the source gives them in different places.

NaV 1.7 channel, sequence (Q15858 whole entry): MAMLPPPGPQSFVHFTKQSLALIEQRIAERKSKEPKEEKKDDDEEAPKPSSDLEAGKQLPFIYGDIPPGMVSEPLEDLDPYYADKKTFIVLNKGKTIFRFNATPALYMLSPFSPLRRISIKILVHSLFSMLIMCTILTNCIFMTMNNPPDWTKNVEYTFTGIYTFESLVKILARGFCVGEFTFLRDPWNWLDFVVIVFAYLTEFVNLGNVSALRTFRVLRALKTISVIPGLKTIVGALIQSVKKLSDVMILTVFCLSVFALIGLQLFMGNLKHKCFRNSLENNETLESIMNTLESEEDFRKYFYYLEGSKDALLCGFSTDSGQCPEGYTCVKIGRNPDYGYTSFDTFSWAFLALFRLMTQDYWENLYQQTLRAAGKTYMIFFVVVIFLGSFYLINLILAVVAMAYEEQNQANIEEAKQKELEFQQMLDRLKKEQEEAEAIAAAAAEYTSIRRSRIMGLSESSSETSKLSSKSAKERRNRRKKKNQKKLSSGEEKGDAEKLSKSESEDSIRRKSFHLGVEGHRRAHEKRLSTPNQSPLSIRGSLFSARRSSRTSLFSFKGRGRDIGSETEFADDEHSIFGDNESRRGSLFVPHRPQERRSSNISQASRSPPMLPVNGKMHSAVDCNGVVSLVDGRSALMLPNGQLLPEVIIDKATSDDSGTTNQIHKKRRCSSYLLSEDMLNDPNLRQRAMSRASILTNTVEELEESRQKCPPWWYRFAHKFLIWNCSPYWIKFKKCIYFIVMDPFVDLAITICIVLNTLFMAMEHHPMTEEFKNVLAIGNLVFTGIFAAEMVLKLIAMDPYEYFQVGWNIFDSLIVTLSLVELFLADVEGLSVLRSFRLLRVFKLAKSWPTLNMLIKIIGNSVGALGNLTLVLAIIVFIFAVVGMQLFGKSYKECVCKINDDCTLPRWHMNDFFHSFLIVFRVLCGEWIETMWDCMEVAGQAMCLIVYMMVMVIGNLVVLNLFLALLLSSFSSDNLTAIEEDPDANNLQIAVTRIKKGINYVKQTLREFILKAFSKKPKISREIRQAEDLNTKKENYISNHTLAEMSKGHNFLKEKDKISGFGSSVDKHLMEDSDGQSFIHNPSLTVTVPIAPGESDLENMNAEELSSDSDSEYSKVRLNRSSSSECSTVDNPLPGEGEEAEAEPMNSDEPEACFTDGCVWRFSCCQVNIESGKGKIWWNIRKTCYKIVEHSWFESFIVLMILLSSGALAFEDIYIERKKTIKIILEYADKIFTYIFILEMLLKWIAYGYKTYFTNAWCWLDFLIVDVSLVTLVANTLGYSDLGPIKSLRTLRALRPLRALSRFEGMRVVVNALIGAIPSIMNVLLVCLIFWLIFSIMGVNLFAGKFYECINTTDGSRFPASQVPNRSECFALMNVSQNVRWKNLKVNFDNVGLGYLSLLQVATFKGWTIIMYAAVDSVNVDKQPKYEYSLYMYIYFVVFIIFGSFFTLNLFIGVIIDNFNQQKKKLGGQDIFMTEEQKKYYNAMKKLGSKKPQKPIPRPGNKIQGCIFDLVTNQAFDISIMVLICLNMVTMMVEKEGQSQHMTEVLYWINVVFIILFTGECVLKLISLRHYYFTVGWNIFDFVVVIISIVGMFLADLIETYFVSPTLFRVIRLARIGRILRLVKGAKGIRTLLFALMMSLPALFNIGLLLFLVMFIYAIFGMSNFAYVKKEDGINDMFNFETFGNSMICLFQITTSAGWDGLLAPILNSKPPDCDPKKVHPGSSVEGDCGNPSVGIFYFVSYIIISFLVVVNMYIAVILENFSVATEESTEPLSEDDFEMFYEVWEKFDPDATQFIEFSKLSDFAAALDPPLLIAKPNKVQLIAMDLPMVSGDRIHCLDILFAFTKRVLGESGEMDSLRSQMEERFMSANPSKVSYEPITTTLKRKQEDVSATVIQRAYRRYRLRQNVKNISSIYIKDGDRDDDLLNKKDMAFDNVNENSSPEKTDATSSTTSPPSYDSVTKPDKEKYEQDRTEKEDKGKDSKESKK

As for `Cc1ncccc1Oc1cc(C(C)(C)C)ccc1C(=O)Nc1cncc(S(N)(=O)=O)c1` [Compound 1], the 50% inhibitory concentration (IC50) is > 20 µM on NaV 1.7 channel, < 2 µM at NaV1.8 [1] and > 20 µM at NaV1.3 [2].
Regarding `CC(C)(C)c1ccc(C(=O)Nc2cncc(S(N)(=O)=O)c2)c(Oc2ccc(F)cc2Cl)c1` [Compound 2], the values for the IC50 on NaV 1.7 channel, at NaV1.8 [1] and at NaV1.3 [2] were 2 to 10 µM, < 2 µM and 2 to 10 µM, respectively.
On to `CC(C)(C)c1ccc(C(=O)Nc2cncc(S(N)(=O)=O)c2)c(Oc2ccc(C(F)(F)F)nc2)c1` [Compound 3], for which the half-maximal inhibitory concentration (IC50) at NaV 1.7 channel is 2 to 10 µM; on NaV1.8 [1], < 2 µM; on NaV1.3 [2], 10 to 20 µM.
Taken in the same sequence, the figures for `CC(C)(C)c1ccc(C(=O)Nc2cncc(S(N)(=O)=O)c2)c(Oc2cccc(C(F)(F)F)n2)c1` [Compound 4] were > 20 µM, < 2 µM and 10 to 20 µM.
Turning to `NS(=O)(=O)c1cncc(NC(=O)c2ccc(C(F)(F)F)cc2Oc2ccc(C(F)(F)F)nc2)c1` [Compound 5, N-(5-Sulfamoylpyridin-3-yl)-4-(trifluoromethyl)-2-(6-(trifluoromethyl)pyridin-3-yloxy)benzamide], the results for the IC50 on NaV 1.7 channel, at NaV1.8 [1] and on NaV1.3 [2] were > 20 µM, 2 to 10 µM and > 20 µM, respectively.
For `CC(C)(C)c1ccc(C(=O)Nc2cncc(S(C)(=O)=O)c2)c(Oc2ccc(C(F)(F)F)nc2)c1` [Compound 6, 4-tert-Butyl-N-(5-(methylsulfonyl)pyridin-3-yl)-2-(6-(trifluoromethyl)pyridin-3-yloxy)benzamide], the results for the IC50 at NaV 1.7 channel, at NaV1.8 [1] and at NaV1.3 [2] were > 20 µM, 2 to 10 µM and 10 to 20 µM, respectively.
In the case of `CC(C)(C)c1ccc(C(=O)Nc2cncc(S(C)(=O)=O)c2)c(Oc2ccc(F)cc2Cl)c1` [Compound 7], the concentration for half-maximal inhibition (IC50) on NaV 1.7 channel is 10 to 20 µM; on NaV1.8 [1], < 2 µM; on NaV1.3 [2] it was 10 to 20 µM.
As to `CS(=O)(=O)c1cncc(NC(=O)c2ccc(C(F)(F)F)cc2Oc2ccc(C(F)(F)F)nc2)c1` [Compound 8], the IC50 at NaV 1.7 channel is > 20 µM; on NaV1.8 [1] it was 2 to 10 µM; on NaV1.3 [2] it was > 20 µM.
As to `CC(C)(C)c1ccc(C(=O)Nc2cncc(S(C)(=O)=O)c2)c(Oc2cccc(C(F)(F)F)n2)c1` [Compound 9], the IC50 fell in the range of 10 to 20 µM on NaV 1.7 channel, 2 to 10 µM at NaV1.8 [1] and 10 to 20 µM at NaV1.3 [2].
Take `NC1=N[C@H](O)[C@H]2[C@H]3O[C@]4(O)O[C@@H]([C@@H](O)[C@@]2(N1)[C@@H]4O)[C@]3(O)CO` [TTX, tetrodotoxin]: the IC50 at NaV1.6 is 0.006 µM; on NaV1.8 [3], > 50 µM; at NaV1.3 [4], 0.015 µM; on NaV1.9, 1 µM.

Source of the values: patent US8865771B2, “Amides useful as inhibitors of voltage-gated sodium channels” (Vertex Pharmaceuticals Incorporated, priority 2007, dated 2014).
